In patent US8969325B2, “TRPV1 antagonists” (AbbVie Inc., priority 2011, dated 2015):
One block for each molecule: values may come before it.

How the values were obtained:
human TRPV1 [1] = target: T1, human TRPV1 (Homo sapiens (Human), UniProt Q8NER1); test: Capsaicin Activation Assay (intracellular Ca2+, FLIPR); type: cell-based; conditions: recombinant HEK293 cells expressing hTRPV1, 50 nM capsaicin
Method: (Logan, Utah). Dulbecco's phosphate-buffered saline (D-PBS) (with 1 mg/mL glucose and 3.6 mg/l Na pyruvate, without phenol red), L-glutamine, hygromycin B, and Lipofectamine® were obtained from Life Technologies (Grand Island, N.Y.). G418 sulfate was obtained from Calbiochem-Novabiochem Corp. (San Diego, Calif.). […] (St. Louis, Mo.). […] The cDNA for human TRPV1 (hTRPV1) was isolated by reverse transcriptase-polymerase chain reaction (RT-PCR) from human small intestine poly A+ RNA supplied by Clontech (Palo Alto, Calif.) using primers designed surrounding the initiation and termination codons identical to the published sequences (Hayes et al. […] The resulting cDNA PCR products were subcloned into pCIneo mammalian expression vector (Promega) and fully sequenced using fluorescent dye-terminator reagents (Prism, PerkinElmer Applied Biosystems Division) and a PerkinElmer Applied Biosystems Model 373 DNA sequencer or Model 310 genetic analyzer. Expression plasmids encoding the hTRPV1 cDNA were transfected into HEK293 cells using Lipofectamine®. Forty-eight hours after transfection, the neomycin-resistant cells were selected with growth medium containing 800 μg/mL Geneticin (Life Technologies, formerly Gibco BRL). Surviving individual colonies were isolated and screened for TRPV1 activity. […] Compound stocks, 10 mM, were prepared in DMSO, and diluted serially across a 384-well plate using a Bravo BenchCel workstation (Agilent Technologies, Santa Clara, Calif.). […] On the day prior to the experiment, the recombinant HEK293 cells expressing human TRPV1 (hTRPV1) were removed from tissue culture flasks and plated in growth medium into black-walled clear-bottom 384-well Biocoat™ poly-D-lysine assay plates (BD Biosciences, Bedford, Mass.) using a Multidrop® dispenser (ThermoScientific, Waltham, Mass.). […] Molecular Devices, Sunnyvale, Calif.) was added to each well using the Multidrop® dispenser. […] Fluorescence readings were made at 1 to 5 second intervals over the course of the experimental run.

human TRPV1 [2] = target: T1, human TRPV1; test: Acid Activation Assay (pH 5.0, intracellular Ca2+, FLIPR); type: cell-based; conditions: percentage of the maximal pH 5.0-induced response remaining; recombinant HEK293 hTRPV1 cells; maximum concentration tested 37.5 μM
Method: Dulbecco's modified Eagle's medium (DMEM) with 4.5 m g/mL D-glucose, fetal bovine serum, L-glutamine, and 2-morpholinoethanesulfonic acid (MES) were purchased from Sigma-Aldrich Co. (St. Louis, Mo.). Dulbecco's phosphate-buffered saline (DPBS) with Ca^2+, Mg^2+, and 1 mg/mL D-glucose (pH 7.4), Geneticin®, 0.25% trypsin-1 mM EDTA, and penicillin-streptomycin were purchased from Invitrogen Corp. (Carlsbad, Calif.). The FLIPR® Calcium 4 assay kit was purchased from Molecular Devices (Sunnyvale, Calif.).
The cDNA for human TRPV1 (hTRPV1) was isolated by reverse transcriptase-polymerase chain reaction (RT-PCR) from human small intestine poly A+ RNA supplied by Clontech (Palo Alto, Calif.) using primers designed surrounding the initiation and termination codons identical to the published sequences (Hayes et al. Pain 2000, 88, 205-215). The resulting cDNA PCR products were subcloned into pCIneo mammalian expression vector (Promega) and fully sequenced using fluorescent dye-terminator reagents (Prism, PerkinElmer Applied Biosystems Division) and a PerkinElmer Applied Biosystems Model 373 DNA sequencer or Model 310 genetic analyzer. Expression plasmids encoding the hTRPV1 cDNA were transfected into HEK293 cells using Lipofectamine®. Forty-eight hours after transfection, the neomycin-resistant cells were selected with growth medium containing 800 μg/mL Geneticin (Life Technologies, formerly Gibco BRL). Surviving individual colonies were isolated and screened for TRPV1 activity. Cells expressing recombinant TRPV1 were maintained at 37° C. in DMEM containing 4 mM L-glutamine, 300 μg/mL G418 (Calbiochem) and 10% fetal bovine serum under a humidified 5% CO2 atmosphere.
The functional activity of compounds at the TRPV1 receptor was determined by measurement of intracellular Ca^2+ levels ([Ca^2+]i) using the Fluorescence Imaging Plate Reader (FLIPR)TETRA®. All compounds were tested over a 12-point one-half-log concentration range with 37.5 μM being the maximum concentration tested. Compound stocks, 10 mM, were prepared in DMSO, and diluted serially across a 384-well plate using a Bravo BenchCel workstation (Agilent Technologies, Santa Clara, Calif.). On the day prior to the experiment, the recombinant HEK293 cells expressing human TRPV1 (hTRPV1) were removed from tissue culture flasks and plated in growth medium into black-walled clear-bottom 384-well Biocoat™ poly-D-lysine assay plates (BD Biosciences, Bedford, Mass.) using a Multidrop® dispenser (ThermoScientific, Waltham, Mass.). On the day of the experiment growth medium was removed, and the no-wash FLIPR® Calcium-4 dye (λEX=470-495 nm, λEM=515-575 nm) was added to each well using the Multidrop® dispenser. The plated cells were incubated for 90-120 min in the dark at 25° C. The test compounds dissolved in DMSO were then added to the plates using an Agilent Bravo workstation (Agilent Technologies Inc., Santa Clara, Calif.). Three minutes later, a pH 5.0 solution was added to each well. Reagents were delivered at a rate of 40 μL/sec, and the final assay volume was 80 μL. Acidic pH solutions were prepared by titration of DPBS/MES with 1 N HCl. The intensity of the fluorescence was captured and digitally transferred to an interfaced PC. The maximum peak measured for the concentration range tested was used to calculate the corresponding peak increase in fluorescence over baseline (relative fluorescence units) which was expressed as the percentage (max % remain) of the maximal pH 5.0-induced response.
Table 1 reports the percentage (max % remain) of the maximal pH 5.0-induced response measured for the compounds tested in the recombinant HEK293 cell assay. Most of the compounds tested inhibited calcium flux only partially following TRPV1 activation by the pH 5.0 solution.

T1 sequence (Q8NER1 whole entry): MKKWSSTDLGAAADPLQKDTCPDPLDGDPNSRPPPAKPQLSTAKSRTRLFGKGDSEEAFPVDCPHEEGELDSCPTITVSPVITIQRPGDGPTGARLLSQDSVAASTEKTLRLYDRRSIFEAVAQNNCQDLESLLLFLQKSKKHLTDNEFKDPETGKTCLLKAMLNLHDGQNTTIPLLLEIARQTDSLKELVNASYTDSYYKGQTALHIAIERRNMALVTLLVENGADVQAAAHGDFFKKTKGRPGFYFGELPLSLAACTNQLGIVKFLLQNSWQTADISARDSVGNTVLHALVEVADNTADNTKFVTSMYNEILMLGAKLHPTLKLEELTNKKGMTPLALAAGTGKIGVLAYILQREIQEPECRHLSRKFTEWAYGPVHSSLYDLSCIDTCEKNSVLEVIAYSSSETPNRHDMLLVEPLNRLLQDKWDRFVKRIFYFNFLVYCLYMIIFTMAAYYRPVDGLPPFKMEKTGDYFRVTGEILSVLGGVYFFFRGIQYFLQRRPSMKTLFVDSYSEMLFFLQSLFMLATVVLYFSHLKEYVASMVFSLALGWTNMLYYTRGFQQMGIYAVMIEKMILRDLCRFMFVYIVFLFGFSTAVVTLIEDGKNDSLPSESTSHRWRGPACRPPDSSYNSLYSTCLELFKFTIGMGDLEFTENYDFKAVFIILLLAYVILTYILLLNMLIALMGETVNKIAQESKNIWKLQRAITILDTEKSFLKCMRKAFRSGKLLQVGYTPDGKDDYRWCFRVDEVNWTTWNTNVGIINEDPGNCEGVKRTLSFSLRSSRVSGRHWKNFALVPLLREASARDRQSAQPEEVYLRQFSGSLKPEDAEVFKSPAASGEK

IC50 (human TRPV1 [1]): 0.17 µM
human TRPV1 H^+ (max % remain) (human TRPV1 [2]): 69%
SMILES: CCCC1(CCC)C[C@@H](NC(=O)Nc2ccc3c(c2)N(C)C(=O)CC3)c2cccc(F)c2O1 [Example 271, 1-[(4R)-8-fluoro-2,2-dipropyl-3,4-dihydro-2H-chromen-4-yl]-3-(1-methyl-2-oxo-1,2,3,4-tetrahydroquinolin-7-yl)urea]

IC50 (human TRPV1 [1]): 0.27 µM
human TRPV1 H^+ (max % remain) (human TRPV1 [2]): 56%
SMILES: CN1Cc2ccc(NC(=O)N[C@@H]3CC(C)(C)Oc4ccccc43)cc2NC1=O [Example 193, 1-[(4R)-2,2-dimethyl-3,4-dihydro-2H-chromen-4-yl]-3-(3-methyl-2-oxo-1,2,3,4-tetrahydroquinazolin-7-yl)urea]

IC50 (human TRPV1 [1]): 0.31 µM
human TRPV1 H^+ (max % remain) (human TRPV1 [2]): 95%
SMILES: CC1(C)C[C@@H](NC(=O)Nc2ccc3c(c2)NC(=O)CO3)c2cccc(F)c2O1 [Example 100, 1-[(4R)-8-fluoro-2,2-dimethyl-3,4-dihydro-2H-chromen-4-yl]-3-(3-oxo-3,4-dihydro-2H-1,4-benzoxazin-6-yl)urea]

IC50 (human TRPV1 [1]): 0.076 µM
human TRPV1 H^+ (max % remain) (human TRPV1 [2]): 55%
SMILES: O=C1CCc2ccc(NC(=O)N[C@@H]3CC(CF)(CF)Oc4c3ccc(Cl)c4F)cc2N1 [Example 231, 1-[(4R)-7-chloro-8-fluoro-2,2-bis(fluoromethyl)-3,4-dihydro-2H-chromen-4-yl]-3-(2-oxo-1,2,3,4-tetrahydroquinolin-7-yl)urea]

IC50 (human TRPV1 [1]): 0.047 µM
human TRPV1 H^+ (max % remain) (human TRPV1 [2]): 26%
SMILES: O=C1CCc2ccc(NC(=O)N[C@@H]3CCOc4cc(C(F)(F)F)ccc43)cc2N1 [Example 239, 1-(2-oxo-1,2,3,4-tetrahydroquinolin-7-yl)-3-[(4R)-7-(trifluoromethyl)-3,4-dihydro-2H-chromen-4-yl]urea]

IC50 (human TRPV1 [1]): 0.091 µM
human TRPV1 H^+ (max % remain) (human TRPV1 [2]): 59%
SMILES: CCC1(CC)C[C@@H](NC(=O)Nc2ccc3c(c2)NC(=O)N(C)C3)c2cccc(F)c2O1 [Example 177, 1-[(4R)-2,2-diethyl-8-fluoro-3,4-dihydro-2H-chromen-4-yl]-3-(3-methyl-2-oxo-1,2,3,4-tetrahydroquinazolin-7-yl)urea]

human TRPV1 H^+ (max % remain) (human TRPV1 [2]): 30%
SMILES: CN1C(=O)NCc2c(NC(=O)N[C@@H]3CC(C)(C)Oc4cc(Cl)ccc43)cccc21 [Example 6, 1-[(4R)-7-chloro-2,2-dimethyl-3,4-dihydro-2H-chromen-4-yl]-3-(1-methyl-2-oxo-1,2,3,4-tetrahydroquinazolin-5-yl)urea]

human TRPV1 H^+ (max % remain) (human TRPV1 [2]): 60%
SMILES: CN1Cc2ccc(NC(=O)N[C@@H]3CC(C)(C)Oc4c(F)cccc43)cc2NC1=O [Example 210, 1-[(4R)-8-fluoro-2,2-dimethyl-3,4-dihydro-2H-chromen-4-yl]-3-(3-methyl-2-oxo-1,2,3,4-tetrahydroquinazolin-7-yl)urea]

More lines, now with the values behind:

SMILES: CCN1C(=O)NCc2c(NC(=O)N[C@@H]3CC(C)(C)Oc4ccccc43)cccc21 [Example 8, 1-[(4R)-2,2-dimethyl-3,4-dihydro-2H-chromen-4-yl]-3-(I-ethyl-2-oxo-1,2,3,4-tetrahydroquinazolin-5-yl)urea]
IC50 (human TRPV1 [1]): 0.094 µM
human TRPV1 H^+ (max % remain) (human TRPV1 [2]): 1%

SMILES: CN1C(=O)CCc2ccc(NC(=O)N[C@@H]3C[C@@](C)(C(F)(F)F)Oc4ccccc43)cc21 [Example 298, 1-(1-methyl-2-oxo-1,2,3,4-tetrahydroquinolin-7-yl)-3-[(2S,4R)-2-methyl-2-(trifluoromethyl)-3,4-dihydro-2H-chromen-4-yl]urea]
IC50 (human TRPV1 [1]): 0.067 µM
human TRPV1 H^+ (max % remain) (human TRPV1 [2]): 69%

SMILES: CN1C(=O)NCc2c(NC(=O)N[C@@H]3CC(C)(C)c4ccccc43)cccc21 [Example 158, 1-[(1R)-3,3-dimethyl-2,3-dihydro-1H-inden-1-yl]-3-(1-methyl-2-oxo-1,2,3,4-tetrahydroquinazolin-5-yl)urea]
human TRPV1 H^+ (max % remain) (human TRPV1 [2]): 35%

SMILES: CN1Cc2ccc(NC(=O)N[C@@H]3CCOc4ccccc43)cc2NC1=O [Example 175, 1-[(4R)-3,4-dihydro-2H-chromen-4-yl]-3-(3-methyl-2-oxo-1,2,3,4-tetrahydroquinazolin-7-yl)urea]
IC50 (human TRPV1 [1]): 4.1 µM
human TRPV1 H^+ (max % remain) (human TRPV1 [2]): 62%

SMILES: Cn1c(=O)ccc2c(NC(=O)N[C@@H]3CC(C)(C)Oc4cc(Br)ccc43)cccc21 [Example 89, 1-[(4R)-7-bromo-2,2-dimethyl-3,4-dihydro-2H-chromen-4-yl]-3-(1-methyl-2-oxo-1,2-dihydroquinolin-5-yl)urea]
IC50 (human TRPV1 [1]): 0.031 µM
human TRPV1 H^+ (max % remain) (human TRPV1 [2]): 53%

SMILES: CCC1(CC)C[C@@H](NC(=O)Nc2cccc3c2CNC(=O)N3C)c2ccc(F)cc2O1 [Example 143, 1-[(4R)-2,2-diethyl-7-fluoro-3,4-dihydro-2H-chromen-4-yl]-3-(1-methyl-2-oxo-1,2,3,4-tetrahydroquinazolin-5-yl)urea]
human TRPV1 H^+ (max % remain) (human TRPV1 [2]): 19%

SMILES: CCCC1(CCC)C[C@@H](NC(=O)Nc2cccc3c2CNC(=O)N3C)c2cccc(F)c2O1 [Example 156, 1-[(4R)-8-fluoro-2,2-dipropyl-3,4-dihydro-2H-chromen-4-yl]-3-(1-methyl-2-oxo-1,2,3,4-tetrahydroquinazolin-5-yl)urea]
IC50 (human TRPV1 [1]): 0.19 µM
human TRPV1 H^+ (max % remain) (human TRPV1 [2]): 67%

SMILES: Cn1c(=O)ccc2c(NC(=O)N[C@@H]3CC4(CCCC4)Oc4ccccc43)cccc21 [Example 65, 1-[(4R)-3,4-dihydrospiro[chromene-2,1′-cyclopentan]-4-yl]-3-(1-methyl-2-oxo-1,2-dihydroquinolin-5-yl)urea]
IC50 (human TRPV1 [1]): 0.028 µM
human TRPV1 H^+ (max % remain) (human TRPV1 [2]): 37%

SMILES: CN1C(=O)NCc2c(NC(=O)N[C@@H]3CC(C)(C)Oc4ccccc43)cccc21 [Example 4, 1-[(4R)-2,2-dimethyl-3,4-dihydro-2H-chromen-4-yl]-3-(1-methyl-2-oxo-1,2,3,4-tetrahydroquinazolin-5-yl)urea]
human TRPV1 H^+ (max % remain) (human TRPV1 [2]): 35%

SMILES: CN1C(=O)NCc2c(NC(=O)N[C@@H]3CC(CF)(CF)Oc4c3ccc(Cl)c4F)cccc21 [Example 3, 1-[(4R)-7-chloro-8-fluoro-2,2-bis(fluoromethyl)-3,4-dihydro-2H-chromen-4-yl]-3-(1-methyl-2-oxo-1,2,3,4-tetrahydroquinazolin-5-yl)urea]
human TRPV1 H^+ (max % remain) (human TRPV1 [2]): 19%

SMILES: CN1C(=O)CCc2ccc(NC(=O)N[C@@H]3CCOc4c3cccc4C(F)(F)F)cc21 [Example 284, 1-(1-methyl-2-oxo-1,2,3,4-tetrahydroquinolin-7-yl)-3-[(4R)-8-(trifluoromethyl)-3,4-dihydro-2H-chromen-4-yl]urea]
human TRPV1 H^+ (max % remain) (human TRPV1 [2]): 79%
